Experimental data taken from patent US6413937B1, “Combinations for use in increasing the potency of a substrate for multidrug resistance related protein” (Dublin City University and Enterprise Ireland, priority 1996, dated 2002).

How the values were obtained:
OAW42-SR cell line = experiment: miniaturised in vitro colorimetric cell survival assay, LRP overexpressing OAW42-SR; type: cell-based, human; details: alone or + Adriamycin 147 ng/ml
Procedure: All the results presented in this Example for the DLKP, A549 and OAW42-SR cell lines were derived using the same miniaturised in vitro calorimetric assay system. On Day 1 of the assay 1000 cells/well/100 μl were plated into 96-well plates. Cells were allowed to attach overnight and cell viability was visually assessed. On Day 2 the two drugs (i.e. NSAID plus chemotherapeutic drug) to be analysed were added onto the cells. The individual drugs were added separately in 50 μl quantities (4× stocks, to take into account the dilution effect of having 200 μl final volume in each well). The drugs were left on the cells for five further days (Day 7) and cell number was determined using the acid phosphatase end-point assay which uses p-nitrophenol phosphate as substrate (Martin, A. and Clynes, M. (1991) In Vitro Dev. Biol., 27A, 183-184). On Day 7 the culture medium was removed from the cells and they were washed once with phosphate buffered saline (PBS). […] After the incubation period 50 μl of 1N NaOH was added to each well to develop the colour. The plates were then read at 405 nm (reference 620 nm) on an ELISA plate-reader. […] All results are the cell survival means ±S.D. from a minimum of three experiments.

DLKP-7 cells = experiment: adriamycin efflux from loaded cells, HPLC; type: cell-based
Procedure: DLKP-7 cells were seeded into 75 cm^2 flasks at 0.5×10^6 cells/10 ml ATCC medium. The cells were left for 2 days, the ATCC medium was removed and fresh medium containing adriamycin (0.5 μg/ml) was added. Following a 2 hour incubation this medium was removed, the flasks were washed twice with PBS, 10 ml ATCC medium or ATCC medium containing the test NSAID was added, and the cells were incubated for a further 4 hr. The cells were trypsinised and the pellet was frozen at −20° C. Duplicate flasks for each time point were prepared. The NSAIDs used were indomethacin 10 μg/ml and piroxicam 20 μg/ml.
The amount of adriamycin in the cells was quantified using liquid-liquid extraction and reverse-phase HPLC analysis. The frozen cell pellets were thawed and resuspended in […] of water/100 μl of 33% silver nitrate and mixed for 5 min. 300 μl of methanol, containing 1.5 μg of daunorubicin as an internal standard (IS), and 1.3 ml of acetonitrile were then added and the tubes mixed for a further 5 min. The mixture was transferred to glass tubes and kept at 4° C. for 1 hr. The tubes were then centrifuged at 1000 g for 15 min. to pellet any solid material. 1.1 ml of the supernatant was removed to HPLC autosampler vials (Labquip, Dublin, Ireland). The solvent was evaporated off at room temperature under a stream of nitrogen gas.
The extract was resuspended in 50 μl of mobile phase 1 (MP1): 32 ml of 0.1 M phosphoric acid mixed with 244 ml of ultrapure water, pH: 2.3 (adjusted upwards with a few drops of 1N potassium hydroxide) to which 124 ml of acetonitrile was added and the final mixture was degassed in a sonicating bath for 5 min. The second mobile phase (MP2) consisted of acetonitrile. The resuspended sample (20 μl) was automatically injected into the HPLC system. The HPLC system comprised a Beckman System Gold 507 autosampler, 125 pump and 166 detector. The MP was pumped through a C18 reversed-phase Prodigy 5 μm particle size ODS-3 column (Phenomenex, Macclesfield, England) (dimensions 150×4.6mm) and absorbance was measured at 253 nm. For the first 14 min. of the chromatographic run MP 1 was pumped at 0.5 ml/min. From 14 min. to 20 min. the column was switched to MP 2. At 20 min. the column was switched back to MP 1 and the flow rate increased to 1 ml/min. At 30 min. the flow rate was brought back to 0.5 ml/min. The run continued for a further 5 min. giving a total run time of 35 min. The amount of adriamycin present was quantified by measuring its peak area and the peak area of the IS. The peak area of the adriamycin was divided by the area of the IS peak and the ratio plotted against a concentration series for spiked adriamycin samples.

[1] = system: murine and human cultured tumour cells; details: non-toxic concentrations of indomethacin; in vitro; cited from earlier work
HL-60ADR cells = experiment: etoposide-induced apoptosis (nuclear fragmentation), HL-60ADR; type: cell-based; details: HL-60ADR (resistant); etoposide alone or co-treated with sulindac; FIG. 1
Procedure: (§1) An experiment was carried out to determine the effect of the NSAID sulindac on etoposide-induced apoptosis in two cell lines, namely HL-60S and HL-60ADR. These cell lines were donated by Dr. Melvin Center, Kansas State University, Manhattan Kans. 66506, U.S.A. For the HL-60S and ADR cell lines the percentage of apoptotic cells within the cell population, following drug exposure, was used to quantify toxicity. Cells were plated in fresh medium at a concentration of 10^6 cells/ml in a 24-well plate (Greiner) and drugs were then added to the wells. A 200 μl sample from each well was taken after 4 and 8 hrs. Samples were cytospun for 2 min at 500 rpm using a Shandon Cytofuge3. After air-drying the cytospins were stained using a Romanowsky staining kit, Rappi-Diff II (Langanbach), dried and mounted in DPX (BDH). Slides were studied on an Optiphot microscope (Nikon) fitted with a 40× objective, and visualised on a monitor via a Mitsubishi CCD-100E colour CCD-camera and a 0.6× relay lens. Nuclear fragmentation was used as a morphological marker for apoptosis and a minimum of 200 cells were assessed in at least three different microscopic fields. Results were expressed as the percentage of apoptotic cells within the population. Each experiment was repeated in duplicate.

HL-60S cells = experiment: etoposide-induced apoptosis (nuclear fragmentation), HL-60S; type: cell-based; details: HL-60S (sensitive); etoposide with sulindac; FIG. 2
Procedure: as §1

COR L23 R (MRP+) cells = details: doxorubicin 10 mg/ml alone or with sulindac 20 mg/ml, 1, 2, 4 h, FIG. 3
Procedure: 10^6 COR L23 P (parental non-MRP resistant, MRP−) or COR L23 R (MRP resistant, MRP+) cells were added to 75 cm^3 vented flasks containing HEPES buffered Rosemount Park Memorial Institute (RPMI) medium and maintained at 37° C. in a 5% CO2 atmosphere. […] After three days of growth, doxorubicin (final concentration 10 mg/ml), sulindac (final concentration 20 mg/ml) or doxorubicin and sulindac were added to individual flasks. Samples were taken after 1, 2 and 4 h. and assayed for drug content.
The contents of each flask were washed twice with 5 ml of PBS and stored at −70° C. The flasks were thawed and 100 μl of water and 100 μl of 33% silver nitrate added to each and mixed for 5 min. […]
The extract was resuspended in 50 μl of methanol in the sample vial and loaded into the HPLC autosampler. […] The mobile phases were pumped through a C18 reversed-phase Ultrasphere XL (Beckman) HPLC column (4.6×70 mm) with absorbance measured at 253 nm. […] The amount of doxorubicin and sulindac present was quantified by measuring the peak height of these drugs and the internal standard. […] The concentration of doxorubicin in the samples was calculated from the) nd development standard line using the peak height ratio. The sulindac concentrations were calculated by the same method.

| SMILES | % cell survival (OAW42-SR cell line; vi) Indomethacin 0.625 μg/ml) [%] | % cell survival (OAW42-SR cell line; vi) Indomethacin 1.25 μg/ml) [%] | % cell survival (OAW42-SR cell line; vi) Indomethacin 2.5 μg/ml) [%] | % Adriamycin content at 0 h (DLKP-7 cells; cells loaded with adriamycin 0.5 μg/ml 2 h, indomethacin 10 μg/ml, piroxicam 20 μg/ml, 0 h) [%] | % Adriamycin content at 4 h (DLKP-7 cells; cells loaded with adriamycin 0.5 μg/ml 2 h, indomethacin 10 μg/ml, piroxicam 20 μg/ml, 4 h) [%] | level of adriamycin within the treated cells (DLKP-7 cells; during the 4 hours of the experiment) | enhancement of VP-16 sensitivity [1] | etoposide-induced apoptosis, percentage of apoptotic cells (HL-60ADR cells) | etoposide-induced apoptosis, percentage of apoptotic cells (HL-60S cells) | doxorubicin level in the cells (COR L23 R (MRP+) cells) |
| --- | --- | --- | --- | --- | --- | --- | --- | --- | --- | --- |
| COc1ccc2c(c1)c(CC(=O)O)c(C)n2C(=O)c1ccc(Cl)cc1 [Indomethacin, indomethacin] | 99.26 ± 3.7 | 97.67 ± 1.3 | 95.60 ± 3.3 | 100 | 109 ± 4 | remained constant during the 4 hours of the experiment | enhanced the VP-16 sensitivity of a variety of cancer cell lines | – | – | – |
| CC1=C(CC(=O)O)c2cc(F)ccc2/C1=C\c1ccc([S+](C)[O-])cc1 (stereo not shown) [Sulindac, sulindac] | – | – | – | – | – | – | – | a significant increase in the amount of cells dying by apoptosis is observed | the increased apoptosis is only due to an additive effect of both etoposide and sulindac | the doxorubicin level in the cells is increased to near that found in the MRP—cells |
